In US7807648B2, “G-rich polynucleotides for the treatment of Huntington's Disease” (University of Delaware, priority 2005, dated 2010):
Entries after “also recorded” stand apart in the source; their conditions may differ.

Assays:
GST-Q58-Htn = target: T1, GST-Q58-Htn (Homo sapiens, UniProt P42858, INS38QQQQQQQQQQQQQQQQQQQQQQQQQQQQQQQQQQQQQ); test: Biochemical/immunoblotting filter assay of mutant Htt fragment aggregation; settings: for inhibitory activity on aggregation (overall statement): concentration not given, 0.5-60 μM tested; for inhibitory activity on aggregation (overall statement) / inhibition of aggregate formation: 24 h; for inhibition of Htt aggregation: 1-5 μM concentrations, dose curve FIG. 4; for inhibition of aggregate formation: ODN at 20 μM or 40 μM, FIG. 5/6; for reproducible inhibitory activity: biochemical assay
T1 construct: this fragment consists of the amino terminal 171 amino acids with a tract of 58 glutamine residues fused to GST; GST (N, cleaved yes)

[1] = test system: Httexon1-eGFP fusion protein aggregation in HEK293 cells; test: Aggregate formation (green fluorescent foci) in HEK293 cells transfected with p72Q, microscopy; format: cell-based, human; settings: for inhibition of aggregate formation (number of green fluorescent foci): 150-750 nM; for reproducible inhibitory activity: cell-based assay
polyQ aggregates = settings: cited from earlier work; for inhibition of the aggregation process: R6/2 mouse model; for toxicity: mouse, in vivo
[2] = test system: aggregated Htt-eGFP in HEK293 cells; test: FACS analysis of aggregation in HEK293 cells transfected with p72Q; format: cell-based, human; settings: 1 μM and 2.5 μM, 48 hours, FIG. 13
[3] = co-transfected with p72Q, 48 hours

T1 sequence (P42858 with tags, fused parts or gaps with the stated changes limits assumed): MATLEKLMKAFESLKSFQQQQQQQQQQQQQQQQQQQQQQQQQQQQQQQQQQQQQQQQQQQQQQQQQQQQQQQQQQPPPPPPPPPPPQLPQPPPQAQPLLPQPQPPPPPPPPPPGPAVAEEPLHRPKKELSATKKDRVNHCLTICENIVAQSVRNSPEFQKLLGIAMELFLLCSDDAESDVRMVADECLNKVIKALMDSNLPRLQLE

For 5′-GGGGGTGGGGGTGGGGTGGGGGT-3′ [T40216], the “inhibitory activity on aggregation (overall statement)” value (from here on “inhibitory activity on aggregation”) (GST-Q58-Htn) was “effective inhibitors of aggregation; also recorded: capable of inhibiting GST-Q58-Htn aggregation”.
For 5′-GGGTGGGTGGGTGGGT-3′ [T30923], the “inhibition of aggregate formation (number of green fluorescent foci)” value (from here on “inhibition … (number of green fluorescent foci)”) [1, 3] was “could not fully substitute for HDG”, the “dose response of aggregation inhibition” value (GST-Q58-Htn) was “dose response visible” and the “inhibitory activity on aggregation” value (GST-Q58-Htn) was “effective inhibitors of aggregation; also recorded: capable of inhibiting GST-Q58-Htn aggregation”.
With “5′-GGTGGTGGTGGTTGTGGTGGTGGTGG-3′ (DNA GGTGGTGGTGGTTGTGGTGGTGGTGG; listed as DNA, chemistry not given here) [GRO26B]” the “inhibitory activity on aggregation” value (GST-Q58-Htn) was “inhibit Huntington aggregation”.
For “5′-TTTGGTGGTGGTGGTTGTGGTGGTGGTGG-3′ [GRO29A]”, the “inhibitory activity on aggregation” value (GST-Q58-Htn) was “inhibit Huntington aggregation”.
For `Oc1c(I)cc(Cl)c2cccnc12` [Clioquinol], the “inhibition of the aggregation process” value (polyQ aggregates) is listed as “inhibit the aggregation process” and the toxicity (polyQ aggregates) is listed as “neurotoxicity”.
For `Nc1c(/N=N/c2ccc(-c3ccc(/N=N/c4cc(S(=O)(=O)O)c5ccccc5c4N)cc3)cc2)cc(S(=O)(=O)O)c2ccccc12` [Congo Red], the “reduction of green fluorescent foci” value ([1]; Congo Red added concurrently with p72Q (0.2 μM or 1 μM), higher dosage, FIG. 8) was “significant reduction”, the “inhibition … (number of green fluorescent foci)” value [1, 3] was “displayed effects similar to HDG” and the “inhibition of aggregate formation” value ([1]; lower dosage of Congo Red (0.2 μM or 1 μM), FIG. 8) was “only partially inhibited”. For the same molecule, the “inhibition of the aggregation process” value (polyQ aggregates) was “inhibit the aggregation process” and the toxicity (polyQ aggregates) was “neurotoxicity”.
For “HDA: 20-mer with all As (DNA AAAAAAAAAAAAAAAAAAAA; listed as DNA, chemistry not given here)”, the reproducible inhibitory activity [1] was “None”, the “inhibition … (number of green fluorescent foci)” value [1, 3] was “little effect on the number of aggregates; also recorded: does not appear to inhibit aggregate formation” and the “peak of high intensity eGFP (aggregates)” value [2] was “little detectable change; also recorded: no significant reduction in aggregates”. For the same molecule, the “inhibition of Htt aggregation” value (GST-Q58-Htn) was “unable to detect any Htt aggregate inhibition”, the “inhibition of aggregate formation” value (GST-Q58-Htn) was “unable to inhibit aggregate formation; also recorded: no inhibition of aggregation was observed” and the reproducible inhibitory activity (GST-Q58-Htn) was “None”.
For “HDG 20/2: HDG 20-mer wherein every other G was substituted with a T residue (DNA GTGTGTGTGTGTGTGTGTGT; listed as DNA, chemistry not given here)”, the “activity of HDG variants with T residues inserted” value ([1]; co-transfected with p72Q, 48 hours, FIG. 11) was “None of these molecules were found to be effective inhibitors of aggregation; also recorded: reduced significantly; also recorded: low level of activity”.
In the case of “HDT: 20-mer with all T's (DNA TTTTTTTTTTTTTTTTTTTT)”, the reproducible inhibitory activity [1] was “None”, the “inhibition of Htt aggregation” value (GST-Q58-Htn) was “unable to detect any Htt aggregate inhibition” and the “inhibition of aggregate formation” value (GST-Q58-Htn) was “unable to inhibit aggregate formation; also recorded: no inhibition of aggregation was observed”. The reproducible inhibitory activity (GST-Q58-Htn) was “None”.
